In PubChem BioAssay AID1645862 (Buhrlage Lab, Dana-Farber Cancer Institute and Novartis …, 2021):
Calls of active or inactive are those of the source. How the calls were made is not given here.

target: Ubiquitin carboxyl-terminal hydrolase 8 (Homo sapiens) (UniProt P40818); test: Ubiquitin-specific protease 8 inhibitors, concentration-effect, biochemical, validation of initial actives (AID 1645862); conditions: recombinant USP8 deubiquitinase activity assay;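 further: potency reflects inhibition of USP8 cleavage of a ubiquitin rhodamine substrate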
Sequence (P40818 whole entry, looked up): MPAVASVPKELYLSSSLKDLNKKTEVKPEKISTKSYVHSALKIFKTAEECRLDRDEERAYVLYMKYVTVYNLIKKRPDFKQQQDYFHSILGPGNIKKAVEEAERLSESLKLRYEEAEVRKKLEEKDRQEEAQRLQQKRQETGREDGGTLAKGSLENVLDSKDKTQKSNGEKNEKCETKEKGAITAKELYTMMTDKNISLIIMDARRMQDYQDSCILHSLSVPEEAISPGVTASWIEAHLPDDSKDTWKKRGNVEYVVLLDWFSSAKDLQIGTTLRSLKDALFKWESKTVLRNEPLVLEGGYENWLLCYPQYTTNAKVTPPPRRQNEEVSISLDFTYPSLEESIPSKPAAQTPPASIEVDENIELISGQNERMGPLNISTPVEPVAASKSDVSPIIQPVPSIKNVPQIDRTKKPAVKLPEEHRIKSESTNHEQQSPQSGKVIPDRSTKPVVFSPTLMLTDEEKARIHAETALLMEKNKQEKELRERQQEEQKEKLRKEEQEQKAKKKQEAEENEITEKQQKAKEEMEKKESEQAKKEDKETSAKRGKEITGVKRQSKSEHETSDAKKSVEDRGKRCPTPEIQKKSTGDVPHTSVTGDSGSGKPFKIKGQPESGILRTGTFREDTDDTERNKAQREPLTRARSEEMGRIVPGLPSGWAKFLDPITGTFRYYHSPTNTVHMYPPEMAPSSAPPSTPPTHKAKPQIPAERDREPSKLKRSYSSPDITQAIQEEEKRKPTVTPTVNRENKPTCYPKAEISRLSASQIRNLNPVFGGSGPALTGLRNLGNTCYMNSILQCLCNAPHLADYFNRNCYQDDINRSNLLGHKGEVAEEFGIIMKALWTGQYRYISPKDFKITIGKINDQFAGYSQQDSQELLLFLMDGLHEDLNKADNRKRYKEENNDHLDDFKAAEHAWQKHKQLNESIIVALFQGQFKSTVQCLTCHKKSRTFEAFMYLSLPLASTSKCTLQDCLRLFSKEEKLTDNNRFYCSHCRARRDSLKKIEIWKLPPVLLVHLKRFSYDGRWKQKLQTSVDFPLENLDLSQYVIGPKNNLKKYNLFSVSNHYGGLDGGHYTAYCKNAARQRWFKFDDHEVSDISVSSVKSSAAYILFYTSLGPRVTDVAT

IC50 | Structure (SMILES)
37.3 µM | Cc1[nH]nc(NC(=O)C2COc3ccccc3O2)c1-c1ccccc1 (stereo unspecified)
> 40 µM (inactive) | O=C(CCCn1c(=O)c2cc(Cl)ccc2n(CC(=O)Nc2cccc(F)c2)c1=O)NCc1ccco1
> 40 µM (inactive) | COc1ccc(-c2nc(-c3cc4cc(OC)ccc4[nH]c3=O)no2)cc1
> 40 µM (inactive) | O=C(Cn1c(=O)c2sccc2n(CC(=O)OCc2ccccc2)c1=O)NCc1ccccc1Cl
> 40 µM (inactive) | Cc1ccc(C(=O)NC(C)c2ccccc2)cc1NC(=O)c1nsc2ccccc12 (stereo unspecified)
> 40 µM (inactive) | O=C(c1ccc2cc[nH]c2c1)N1CCC(Nc2cccnc2)C1 (stereo unspecified)
> 40 µM (inactive) | O=C(Nc1ccccc1C(F)(F)F)c1cccc(S(=O)(=O)Nc2cc(C(F)(F)F)ccc2Cl)c1
> 40 µM (inactive) | CN1CCc2c(C#N)c(N3CCOCC3)nc(NCC3CCCO3)c2C1 (stereo unspecified)
> 40 µM (inactive) | Cc1cccc(N2CCN(C(=O)c3nc4cccnc4n(C)c3=O)CC2)c1C
> 40 µM (inactive) | Cc1nn(-c2ccccc2)c2c1nc(CCC(=O)NC1CCCCC1)c(=O)n2C
> 40 µM (inactive) | O=C(COC(=O)C(Cc1c[nH]c2ccccc12)NC(=O)c1ccccc1Cl)Nc1ccc([N+](=O)[O-])cc1C(F)(F)F (stereo unspecified)
> 40 µM (inactive) | O=C(Cn1c(=O)n(Cc2ccc3c(c2)OCO3)c(=O)c2ccccc21)NCc1ccco1
> 40 µM (inactive) | CCC(=O)Nc1nc2cc(NC(=O)Nc3ccc(C)cc3)ccc2s1
> 40 µM (inactive) | COc1cc(Cn2cnc3c([nH]c4ccc(Br)cc43)c2=O)cc(OC)c1
2.48 µM | CCC/C=C\C#CC/C=C\CCCCCCCC(=O)O
> 40 µM (inactive) | O=C1CC(c2ccccc2)n2ncnc2N1 (stereo unspecified)
> 40 µM (inactive) | CCOc1ccc(NC(=O)Cn2c(=O)n(CCCCCC(=O)NCc3ccc(F)cc3)c(=O)c3sccc32)cc1
> 40 µM (inactive) | O=C(Cn1c(=O)c2ccccc2c2ccccc21)Nc1ccc2c(c1)OCO2
22.6 µM | O=C(c1ccco1)N1CCC2(CC1)CC1(CO2)Nc2ccccc2-n2cccc21 (stereo unspecified)
> 40 µM (inactive) | O=C(COc1ccc(Cl)cc1)Nc1noc(-c2cccs2)n1
> 40 µM (inactive) | Cc1cccc(-n2ccnc(SCC(=O)Nc3ccc(Cl)cc3F)c2=O)c1
> 40 µM (inactive) | Cc1nc(N2CCN(c3ccc(Cl)cc3)CC2)c2oc3ccccc3c2n1
> 40 µM (inactive) | O=c1[nH]c(C2CCN(S(=O)(=O)c3ccc(S(=O)(=O)NC4CC4)cc3)CC2)nc2c1nnn2Cc1c(Cl)cccc1Cl

IC50 | Structure (SMILES)
> 40 µM (inactive) | Cc1cc(Nc2ccc(C(=O)NCc3ccco3)cc2)n2nc(-c3cccnc3)nc2n1
> 40 µM (inactive) | CCc1cccc(CC)c1NC(=O)COC(=O)c1cc2cccc(OC)c2oc1=O
39.6 µM | Cc1ccc(NC(=O)Cn2cc(C(=O)c3ccccc3)c(=O)c3cc(C)ccc32)cc1
> 40 µM (inactive) | CCN(c1ccc(NC(=O)COC(=O)c2cccnc2Nc2cccc(C(F)(F)F)c2)cc1)C(C)C
> 40 µM (inactive) | Cc1ccc(S(=O)(=O)NCc2ccc(C(=O)NCCc3ccc(S(N)(=O)=O)cc3)cc2)cc1
> 40 µM (inactive) | COc1cccc(NC(=O)c2cnc(N3CCCC3)nc2C)c1
> 40 µM (inactive) | CCOc1ccc(-n2ccnc(SCC(=O)Nc3ccccc3F)c2=O)cc1
> 40 µM (inactive) | COc1ccc(C(CNC(=O)c2cc(-c3ccc(Cl)cc3)on2)N2CCOCC2)cc1 (stereo unspecified)
> 40 µM (inactive) | COc1ccc(-c2nc3n(n2)C(CC(=O)Nc2cccc4ccccc24)C(=O)N3)cc1 (stereo unspecified)
> 40 µM (inactive) | Cc1cccc(NC(=O)Cn2c(=O)n(-c3cc(C)cc(C)c3)c(=O)c3sccc32)c1
> 40 µM (inactive) | CC(=O)Nc1ccc(S(=O)(=O)NCc2ccc(C(=O)NCCc3ccc(Cl)cc3)cc2)cc1
> 40 µM (inactive) | Cc1ccc(C(=O)c2cn(CC(=O)Nc3ccccc3)c3ccccc3c2=O)cc1
19.6 µM | CCc1ccc(NC(=O)Cc2nnc3cc(-c4nc(C)no4)ccn23)cc1
> 40 µM (inactive) | COc1ccc([C@H]2Oc3cc(OC)cc(O)c3C(=O)[C@@H]2[C@@H]2C(=O)c3c(O)cc(O)cc3O[C@H]2c2ccc(OC)cc2)cc1
> 40 µM (inactive) | COc1ccc(-c2cc(C(=O)Nc3ccnn3Cc3ccccc3)no2)cc1
> 40 µM (inactive) | CSc1ccc(C(=O)Nc2nc(-c3ccncc3)cs2)cc1
24 µM | CC1(C)Cc2c(c(-c3ccco3)nc3sc4c(SCCCc5ccccc5)ncnc4c23)CO1
16.5 µM | CCc1noc(-c2ccn3c(CC(=O)Nc4ccccc4C)nnc3c2)n1
> 40 µM (inactive) | O=C(NC1CCCC1)C1CC(=O)N(c2cccc(-c3noc(-c4cccs4)n3)c2)C1 (stereo unspecified)
> 40 µM (inactive) | O=C(/C=C/c1ccc(Br)cc1)Nc1cnc2ccccc2c1
> 40 µM (inactive) | COc1ccc(-c2cc3c(=O)n(CC(=O)NCc4ccccc4)ncn3n2)cc1
> 40 µM (inactive) | CCc1ccc(S(=O)(=O)c2cn(CC(=O)Nc3ccccc3)c3ccccc3c2=O)cc1
4.23 µM | Cc1nc(C(=O)NC2(O)C(=O)c3ccccc3C2=O)cs1

IC50 | Structure (SMILES)
> 40 µM (inactive) | COc1ccc(NC(=O)Nc2ccc(F)c(-c3nnc(-c4ccccc4)o3)c2)c(OC)c1
> 40 µM (inactive) | COc1ccc(C)cc1NC(=O)C1CC(=O)Nc2nc3ccccc3n21 (stereo unspecified)
> 40 µM (inactive) | COc1ccc(CNC(=O)C(C)n2nc(-c3ccco3)c(-c3cc(C)no3)cc2=O)cc1 (stereo unspecified)
21.4 µM | O=C(Nc1ccc(-c2cn3ccsc3n2)cc1)c1ccc(Cl)c([N+](=O)[O-])c1
> 40 µM (inactive) | Cc1ccccc1NC(=O)Nc1ccccc1OCc1cc(=O)n2cccc(C)c2n1
> 40 µM (inactive) | COc1ccc(-c2noc(C3(c4ccc(F)cc4)CCOCC3)n2)cc1
> 40 µM (inactive) | CCOc1ccc(CC(=O)Nc2ccc(-c3cn4cccnc4n3)cc2)cc1
> 40 µM (inactive) | Cc1ccc(C2c3[nH]c4ccccc4c3C[C@H]3C(=O)N(c4ccc(C(=O)NCCc5ccccc5)cc4)C(=O)N23)cc1 (stereo partly specified)
> 40 µM (inactive) | COc1ccc2nc(-c3ccc(NC(=O)c4cccc(OC)c4OC)cc3)cn2n1
7.16 µM | Cc1ccc(-n2cc(-c3noc(C(=O)Nc4ccc(F)cc4C)n3)nn2)cc1
> 40 µM (inactive) | CC(NC(=O)c1ccccc1)c1nc2ccccc2n1CC(=O)Nc1ccc(OC(F)(F)F)cc1 (stereo unspecified)
> 40 µM (inactive) | O=C1CC(C(=O)Nc2ccc3c(c2)OCO3)n2nc(SCc3ccccc3)nc2N1 (stereo unspecified)
> 40 µM (inactive) | Cc1cc(C)c2nc3c(cc2c1)CN(Cc1ccco1)C(=O)O3
> 40 µM (inactive) | CCc1nc(SCC(=O)Nc2cc(Cl)ccc2C)c2oc3ccccc3c2n1
> 40 µM (inactive) | O=C(NCc1ccc(F)cc1)c1cccc(Nc2nc3ccccc3n3cnnc23)c1
2.09 µM | C=C1C=C(CCC(=O)O)C(=O)OC1/C=C/C=C/C (stereo unspecified)
> 40 µM (inactive) | Cc1ccccc1NC(=O)N1CCC(CC(=O)N2CCCCC2)CC1
> 40 µM (inactive) | Cn1cc2cccc(NC(=O)c3ccc(F)cc3)c2n1
> 40 µM (inactive) | CCN(Cc1ccccc1)C(=O)C1CCN(Cc2ccc(OC)c(OC)c2OC)CC1
> 40 µM (inactive) | COc1ccc(CNC(=O)C2CCCN(S(=O)(=O)Cc3ccc(Cl)cc3)C2)cc1 (stereo unspecified)
> 40 µM (inactive) | COc1ccc(CCNC(=O)Cn2c(=O)n(-c3ccc(CC(=O)NCCc4ccccc4)cc3)c(=O)c3ccccc32)cc1OC
30.3 µM | Cc1ccc(NC(=O)Cc2nnc3c(-c4nc(C5CC5)no4)cccn23)cc1F
> 40 µM (inactive) | c1cncc(-c2cnc3sc(NCc4ccc5c(c4)OCO5)nn23)c1

IC50 | Structure (SMILES)
> 40 µM (inactive) | COC(=O)c1ccc2c(=O)n(-c3ccc(C)c(F)c3)c(N3CCC(C(N)=O)CC3)nc2c1
> 40 µM (inactive) | CS(=O)(=O)NC1CCCN(C(=O)Nc2cccc3ccccc23)C1 (stereo unspecified)
> 40 µM (inactive) | CSc1ccc(CNC(=O)Cn2c(=O)[nH]c3c(-c4ccccc4)c[nH]c3c2=O)cc1
8.09 µM | CCCCCCCc1cc(OC(=O)c2c(CCCCCCC)cc(O)cc2O[C@@H]2O[C@H](CO)[C@@H](O)[C@H](O)[C@H]2O)cc(O)c1C(=O)O
> 40 µM (inactive) | Cc1ccc(NC(=O)Nc2ccc(C)n(CC(=O)Nc3cccc(C)c3)c2=O)cc1
27.2 µM | COc1ccc(C2/C(=C(\O)c3ccccc3)C(=O)C(=O)N2c2nc3ccc(F)cc3s2)cc1 (stereo unspecified)
5.16 µM | CSc1ncccc1C(=O)NC1(O)C(=O)c2ccccc2C1=O
> 40 µM (inactive) | CC(=O)c1ccc(NC(=O)CCc2c(C)c3c(C)nn(-c4ccccc4)c3n(C)c2=O)cc1
> 40 µM (inactive) | O=C(CCc1ccc(F)cc1)N1CCOC(CCc2cc(=O)[nH]cn2)C1 (stereo unspecified)
> 40 µM (inactive) | CCOc1ccc(S(=O)(=O)Nc2ccc[nH]c2=O)cc1
> 40 µM (inactive) | COc1ccc(-n2ccc(=O)c(-c3nc(-c4ccc(F)cc4)no3)n2)cc1
> 40 µM (inactive) | O=C(Cn1ncc2c(=O)oc3ccccc3c21)NCc1ccc2c(c1)OCO2
> 40 µM (inactive) | Cc1ccnc(Nc2nc(-c3ccccc3)c3cc(Cl)ccc3n2)n1
> 40 µM (inactive) | CCc1ccc(-n2c(C)cc(/C=C3\C(=N)N4N=CSC4=NC3=O)c2C)cc1
> 40 µM (inactive) | COc1ccc2c(c1)c(=O)c(S(=O)(=O)c1ccc(F)cc1)cn2Cc1cccc(F)c1
> 40 µM (inactive) | Cn1c(=O)[nH]c(=O)c2c1nc(N1CCc3ccccc3C1)n2CCSc1nnnn1-c1ccccc1
> 40 µM (inactive) | O=C(Cn1c(-c2nc(-c3cccc(F)c3)no2)cccc1=O)NCc1ccco1
> 40 µM (inactive) | Cc1cc(O)c(=O)cc2c1C[C@H]1CC(C)(C)/C=C/C[C@@]3(C)Oc4cc(=O)c(O)cc(C)c4C[C@@H]3C[C@H](O)[C@]1(C)O2
> 40 µM (inactive) | COc1ccccc1N1CCN(C(=O)c2ccc3c(=O)n(CCc4ccccc4)c(=O)[nH]c3c2)CC1
> 40 µM (inactive) | COc1ccccc1CN1CCC(c2cc(=O)[nH]c(-c3cccnc3)n2)CC1
> 40 µM (inactive) | O=C1CC(c2nc3ccccc3n2CCOc2ccc(Cl)cc2)CN1c1ccccc1 (stereo unspecified)
> 40 µM (inactive) | N#Cc1cccnc1N1CCN(C(=O)Nc2cccc3ccccc23)CC1
